Assay results reported in patent US9174942B2, “IDO inhibitors” (NewLink Genetics Corporation, priority 2008, dated 2015).
Where a name gives a salt, the structure may show the parent alone.

Biological target: T1, purified human IDO protein (Homo sapiens, UniProt P14902, E119G/P110S)
T1 construct: 6-Histidine tag (C); made in house; host or cells: E. coli M15(pREP4) transformed with pQE70-hIDO
Assay: Enzymatic IDO assay (kynurenine formation, absorbance at 480 nm)
Type: biochemical
Conditions: recombinant human IDO, 200 μM L-tryptophan, pH 6.5; reported in ranges
Experimental: The inhibitors were initially diluted in DMSO at 100 mM and were diluted in potassium phosphate 50 mM, added to the reaction mixture at final concentrations raging from 1 mM to 5 nM and preincubated with the enzyme for 5 min at 25° C. The reaction was started by addition of L-tryptophan to 200 μM and incubated 15 min at 37° C. The reaction was stopped by addition of 0.5 vol of 30% trichloroacetic acid and incubated 30 min at 60° C. to hydrolyze N-formylkynurenine to kynurenine. The reaction was centrifuged at 3400 g for 5 min to remove precipitated protein and the supernatant was reacted with 2% (w/v) of p-dimethylaminobenzaldehyde in acetic acid. The reaction was incubated 10 min at 25° C. and read at 480 nm in a spectrophotometer. […] Nonlinear regressions and determination of the IC50 values were performed using the GraphPad Prism 4 software.

T1 sequence (P14902 whole entry P110S/E119G): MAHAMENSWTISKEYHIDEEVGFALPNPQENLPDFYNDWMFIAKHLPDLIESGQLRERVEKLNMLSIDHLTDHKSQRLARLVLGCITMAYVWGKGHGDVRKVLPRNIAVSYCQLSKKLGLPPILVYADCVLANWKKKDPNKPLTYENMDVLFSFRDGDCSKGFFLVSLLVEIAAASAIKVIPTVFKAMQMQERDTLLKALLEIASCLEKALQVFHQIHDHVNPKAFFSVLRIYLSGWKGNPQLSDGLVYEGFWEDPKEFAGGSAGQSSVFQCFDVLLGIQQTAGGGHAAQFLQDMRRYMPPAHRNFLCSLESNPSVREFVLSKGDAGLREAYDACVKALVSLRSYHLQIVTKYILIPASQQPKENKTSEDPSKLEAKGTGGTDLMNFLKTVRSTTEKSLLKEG

First: NS(=O)(=O)c1ccc(COc2ccccc2-c2c[nH]cn2)cc1 [Compound 46, 4-((2-(1H-imidazol-4-yl)phenoxy)methyl) benzenesulfonamide]
Second: CC(=O)NCc1ccc(COc2ccccc2-c2c[nH]cn2)cc1 [Compound 154, N-(4-((2-(1H-imidazol-4-yl)phenoxy)methyl)benzyl) acetamide]
The IC50 of the first is lower: under 20 µM for the first, 20 to 100 µM for the second. The first is the more potent here.

`CC(=O)Nc1ccc(CCOc2ccccc2-c2c[nH]cn2)cc1` [Compound 34, N-(4-(2-(2-(1H-imidazol-4-yl)phenoxy)ethyl)phenyl) acetamide] and `CNC(=O)c1ccc(CCOc2ccccc2-c2c[nH]cn2)cc1` [Compound 45, 4-(2-(2-(1H-imidazol-4-yl)phenoxy)ethyl)-N-methylbenzamide] cannot be ordered by IC50: under 20 µM for the first, under 20 µM for the second.

First: CC(=O)N1CCC(COc2ccccc2-c2c[nH]cn2)CC1 [Compound 100, 1-(4-((2-(1H-imidazol-4-yl)phenoxy)methyl)piperidin-1-yl)ethanone]
Second: CC(=O)N1CCC(CCOc2ccccc2-c2c[nH]cn2)CC1 [Compound 151, 1-(4-(2-(2-(1H-imidazol-4-yl)phenoxy)ethyl)piperidin-1-yl)ethanone]
The IC50 of the first is higher: 100 to 500 µM for the first, under 20 µM for the second.

`O=[N+]([O-])c1cccc(Cn2cncc2-c2ccccc2)c1` [Compound 95, 1-(3-nitrobenzyl)-5-phenyl-1H-imidazole] and `O=[N+]([O-])c1ccc(Cn2cncc2-c2ccccc2)cc1` [Compound 85, 1-(4-nitrobenzyl)-5-phenyl-1H-imidazole] fall in the same range of IC50: 20 to 100 µM for the first, 20 to 100 µM for the second.

`Clc1ccc(COc2ccccc2-c2cnc[nH]2)cc1` [Compound 14, 5-(2-(4-chlorobenzyloxy)phenyl)-1H-imidazole] and `Clc1cccc(COc2ccccc2-c2cnc[nH]2)c1` [Compound 29, 5-(2-(3-chlorobenzyloxy)phenyl)-1H-imidazole] cannot be ordered by IC50: under 20 µM for the first, under 20 µM for the second.

Compared with `CC(C)(CCNc1ccncc1)CCOc1ccccc1-c1cnc[nH]1` [Compound 164, N-(5-(2-(1H-imidazol-5-yl)phenoxy)-3,3-dimethylpentyl) pyridin-4-amine], `CC(C)(CCOc1ccccc1-c1cnc[nH]1)CCn1ccnc1` [Compound 163, 5-(2-(5-(1H-imidazol-1-yl)-3,3-dimethylpentyloxy)phenyl)-1H-imidazole] is higher in IC50: 20 to 100 µM for the first, 100 to 500 µM for the second. The first is the more potent here.

`NC(=O)CCCn1cncc1-c1ccccc1` [Compound 129, 4-(5-phenyl-1H-imidazol-1-yl)butanamide] and `CNC(=O)CCCn1cncc1-c1ccccc1` [Compound 128, N-methyl-4-(5-phenyl-1H-imidazol-1-yl)butanamide] fall in the same range of IC50: 100 to 500 µM for the first, 100 to 500 µM for the second.

`O=C(O)c1cccc(-c2c[nH]cn2)c1` [Compound 113, 3-(1H-imidazol-4-yl)benzoic acid] and `O=C(O)c1ccc(-c2c[nH]cn2)cc1` [Compound 119, 4-(1H-imidazol-4-yl)benzoic acid] fall in the same range of IC50: 100 to 500 µM for the first, 100 to 500 µM for the second.

`N#CC1CCC(=CCOc2ccccc2-c2c[nH]cn2)CC1` (centres unmarked) [Compound 160, 4-(2-(2-(1H-imidazol-4-yl)phenoxy)ethylidene)cyclohexanecarbonitrile] and `CC(=O)NC1CCC(=CCOc2ccccc2-c2c[nH]cn2)CC1` (centres unmarked) [Compound 39, N-(4-(2-(2-(1H-imidazol-4-yl)phenoxy)ethylidene)cyclohexyl)acetamide] cannot be ordered by IC50: under 20 µM for the first, under 20 µM for the second.

First: COc1ccc(Cn2cncc2-c2ccccc2)cc1 [Compound 68, 1-(4-methoxybenzyl)-5-phenyl-1H-imidazole]
Second: Oc1ccc(Cn2cncc2-c2ccccc2)cc1 [Compound 125, 4-((5-phenyl-1H-imidazol-1-yl)methyl)phenol]
The IC50 of the first is lower: 20 to 100 µM for the first, 100 to 500 µM for the second. The first is the more potent here.

`c1ccc(CCCn2cncc2-c2ccccc2)cc1` [Compound 64, 5-phenyl-1-(3-phenylpropyl)-1H-imidazole] and `c1ccc(CCn2cncc2-c2ccccc2)cc1` [Compound 81, 1-phenethyl-5-phenyl-1H-imidazole] fall in the same range of IC50: 20 to 100 µM for the first, 20 to 100 µM for the second.

First: Oc1ccccc1Cn1cncc1-c1ccccc1 [Compound 65, 2-((5-phenyl-1H-imidazol-1-yl)methyl)phenol]
Second: COc1ccccc1Cn1cncc1-c1ccccc1 [Compound 110, 1-(2-methoxybenzyl)-5-phenyl-1H-imidazole]
The IC50 of the first is lower: 20 to 100 µM for the first, 100 to 500 µM for the second. The first is the more potent here.

`Cc1cccc(Cn2cncc2-c2ccccc2)c1` [Compound 90, 1-(3-methylbenzyl)-5-phenyl-1H-imidazole] and `Clc1cccc(Cn2cncc2-c2ccccc2)c1` [Compound 87, 1-(3-chlorobenzyl)-5-phenyl-1H-imidazole] fall in the same range of IC50: 20 to 100 µM for the first, 20 to 100 µM for the second.

`Clc1ccccc1OCCc1ccccc1-c1c[nH]cn1` [Compound 149, 4-(2-(2-(2-chlorophenoxy)ethyl)phenyl)-1H-imidazole] and `Clc1ccccc1COc1ccccc1-c1c[nH]cn1` [Compound 75, 4-(2-(2-chlorobenzyloxy)phenyl)-1H-imidazole] fall in the same range of IC50: 20 to 100 µM for the first, 20 to 100 µM for the second.

`CC(C)(CCOc1ccccc1-c1c[nH]cn1)CCC(=O)O` [Compound 83, 6-(2-(1H-imidazol-4-yl)phenoxy)-4,4-dimethylhexanoic acid hydrochloride] and `CC(C)(CCOc1ccccc1-c1c[nH]cn1)CCN1CCOCC1` [Compound 161, 4-(5-(2-(1H-imidazol-4-yl)phenoxy)-3,3-dimethylpentyl) morpholine] fall in the same range of IC50: 20 to 100 µM for the first, 20 to 100 µM for the second.

First: Oc1c(Br)cccc1-c1cnc[nH]1 [Compound 35, 2-bromo-6-(1H-imidazol-5-yl)phenol]
Second: CCc1ccc(O)c(-c2cnc[nH]2)c1 [Compound 111, 4-ethyl-2-(1H-imidazol-5-yl)phenol]
The IC50 of the first is lower: under 20 µM for the first, 100 to 500 µM for the second.

Compared with `Oc1cccc(OCc2ccc(Cl)cc2)c1-c1cnc[nH]1` [Compound 73, 3-(4-chlorobenzyloxy)-2-(1H-imidazol-5-yl)phenol], `Cc1cccc(COc2ccccc2-c2cnc[nH]2)c1` [Compound 48, 5-(2-(3-methylbenzyloxy)phenyl)-1H-imidazole] is lower in IC50: 20 to 100 µM for the first, under 20 µM for the second.

`Clc1ccc(COc2ccc(Br)cc2-c2c[nH]cn2)cc1` [Compound 49, 4-(5-bromo-2-(4-chlorobenzyloxy)phenyl)-1H-imidazole] and `Oc1ccc(CCOc2ccccc2-c2c[nH]cn2)cc1` [Compound 158, 4-(2-(2-(1H-imidazol-4-yl)phenoxy)ethyl)phenol] cannot be ordered by IC50: under 20 µM for the first, under 20 µM for the second.

Compared with `OCc1ccccc1-c1c[nH]cn1` [Compound 78, (2-(1H-imidazol-4-yl)phenyl)methanol], `O=C(O)c1ccccc1-c1c[nH]cn1` [Compound 153, 2-(1H-imidazol-4-yl)benzoic acid] is higher in IC50: 20 to 100 µM for the first, 100 to 500 µM for the second.

Compared with `O=[N+]([O-])c1ccccc1Cn1cncc1-c1ccccc1` [Compound 71, 1-(2-nitrobenzyl)-5-phenyl-1H-imidazole], `COC(=O)Cn1cncc1-c1ccccc1` [Compound 105, methyl 2-(5-phenyl-1H-imidazol-1-yl)acetate] is higher in IC50: 20 to 100 µM for the first, 100 to 500 µM for the second. The first is the more potent here.

Compared with `NCCCOc1ccccc1-c1cnc[nH]1` [Compound 92, 3-(2-(1H-imidazol-5-yl)phenoxy)propan-1-amine], `c1cnc(NCCOc2ccccc2-c2cnc[nH]2)nc1` [Compound 102] is higher in IC50: 20 to 100 µM for the first, 100 to 500 µM for the second. The first is the more potent here.

First: O=C(NCc1ccccc1-c1c[nH]cn1)c1ccccc1Cl [Compound 30, N-(2-(1H-imidazol-4-yl)benzyl)-2-chlorobenzamide]
Second: N#Cc1ccccc1COc1ccccc1-c1c[nH]cn1 [Compound 99, 2-((2-(1H-imidazol-4-yl)phenoxy)methyl)benzonitrile]
The IC50 of the first is lower: under 20 µM for the first, 100 to 500 µM for the second.

`CC(C)(CCOc1ccccc1-c1c[nH]cn1)CCOc1ccccc1-c1cnc[nH]1` [Compound 18, 5,5′-(2,2′-(3,3-dimethylpentane-1,5-diyl)bis(oxy)bis(2,1-phenylene))bis(1H-imidazole)] and `CNC(=O)c1cccc(CCOc2ccccc2-c2c[nH]cn2)c1` [Compound 50, 3-(2-(2-(1H-imidazol-4-yl)phenoxy)ethyl)-N-methylbenzamide] cannot be ordered by IC50: under 20 µM for the first, under 20 µM for the second.

`CCOC(=O)CCCn1cncc1-c1ccccc1` [Compound 121, ethyl 4-(5-phenyl-1H-imidazol-1-yl)butanoate] and `CC(=O)NCCCCn1cncc1-c1ccccc1` [Compound 127, N-(4-(5-phenyl-1H-imidazol-1-yl)butyl)acetamide] fall in the same range of IC50: 100 to 500 µM for the first, 100 to 500 µM for the second.

Compared with `CCOC(=O)c1ccccc1-c1c[nH]cn1` [Compound 80, ethyl 2-(1H-imidazol-4-yl)benzoate], `O=CNCCOc1ccccc1-c1c[nH]cn1` [Compound 107, N-(2-(2-(1H-imidazol-4-yl)phenoxy)ethyl)formamide] is higher in IC50: 20 to 100 µM for the first, 100 to 500 µM for the second.

`Clc1cccc(CCOc2ccccc2-c2c[nH]cn2)c1` [Compound 33, 4-(2-(3-chlorophenethoxy)phenyl)-1H-imidazole] and `CC(C)(C)CCOc1c(Br)cccc1-c1c[nH]cn1` [Compound 26, 4-(3-bromo-2-(3,3-dimethylbutoxy)phenyl)-1H-imidazole] cannot be ordered by IC50: under 20 µM for the first, under 20 µM for the second.

Compared with `Brc1ccc(-c2c[nH]cn2)cc1` [Compound 70, 5-(4-bromophenyl)-1H-imidazole], `Oc1ccc(F)cc1-c1cc[nH]n1` [Compound 36, 4-fluoro-2-(1H-pyrazol-3-yl)phenol] is lower in IC50: 20 to 100 µM for the first, under 20 µM for the second.

First: CC(C)(C)CCn1cncc1-c1ccccc1OCc1ccc(Cl)cc1 [Compound 106, 5-(2-(4-chlorobenzyloxy)phenyl)-1-(3,3-dimethylbutyl)-1H-imidazole]
Second: CC(C)(C)OC(=O)NCCCCn1cncc1-c1ccccc1 [Compound 86, tert-butyl 4-(5-phenyl-1H-imidazol-1-yl)butylcarbamate]
The IC50 of the first is higher: 100 to 500 µM for the first, 20 to 100 µM for the second. The second is the more potent here.
